Experimental data: ChEMBL document CHEMBL1130804, “Potent antimitotic and cell growth inhibitory properties of substituted chalcones” (Bioorg Med Chem Lett, 1998)

Legend:
Tubulin alpha chain = Tubulin alpha chain (Sus scrofa, UniProt P02550); test: Tested for inhibition of polymerization of tubulin
K562 = test: Compound was evaluated for cytotoxic activity against K562 human chronic myelogenous leukemia cell line using MTT assay; format: functional, cell-based
HeLa = test: Compound was evaluated for cytotoxic activity against HeLa S3 cell line; format: functional, cell-based; settings: Homo sapiens

Chain of Tubulin alpha chain (P02550 whole entry, looked up): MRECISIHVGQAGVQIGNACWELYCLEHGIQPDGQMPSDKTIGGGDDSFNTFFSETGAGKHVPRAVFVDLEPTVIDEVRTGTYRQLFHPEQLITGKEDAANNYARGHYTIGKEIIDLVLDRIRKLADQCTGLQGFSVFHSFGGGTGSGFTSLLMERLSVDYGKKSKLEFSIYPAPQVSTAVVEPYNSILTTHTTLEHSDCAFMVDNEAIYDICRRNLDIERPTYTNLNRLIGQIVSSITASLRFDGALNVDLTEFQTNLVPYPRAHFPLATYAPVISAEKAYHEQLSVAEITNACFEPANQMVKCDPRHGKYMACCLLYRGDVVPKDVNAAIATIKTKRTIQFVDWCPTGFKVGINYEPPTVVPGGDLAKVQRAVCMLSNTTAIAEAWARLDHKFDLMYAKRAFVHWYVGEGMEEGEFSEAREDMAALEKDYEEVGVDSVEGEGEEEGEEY

| SMILES | IC50 (Tubulin alpha chain) [nM] | IC50 (K562) [nM] | IC50 (HeLa) [nM] |
| --- | --- | --- | --- |
| COc1ccc(OC)c(C(=O)/C(C)=C/c2ccc(N(C)C)cc2)c1 | 12 | 11 | – |
| COc1ccc(/C=C/C(=O)c2cc(OC)c(OC)c(OC)c2)cc1O | – | 4.3 | – |
| COc1cc(C(=O)/C(C)=C/c2ccc3c(c2)OCO3)cc(OC)c1OC | – | 14 | – |
| COc1cc(C(=O)/C(C)=C/c2ccc3c(c2)OCCO3)cc(OC)c1OC | – | 12 | – |
| COc1ccc(OC)c(C(=O)/C=C/c2ccc(N(C)C)cc2)c1 | – | 36 | – |
| COc1cc(C(=O)/C=C/c2ccc3c(c2)OCCO3)cc(OC)c1OC | – | 80 | – |
| COc1ccc(/C=C(\C)C(=O)c2cc(OC)c(OC)c(OC)c2)cc1O | – | 0.21 | 0.62 |
| COc1cc(C(=O)/C=C/c2ccc3c(c2)OCO3)cc(OC)c1OC | – | 300 | – |
